The subject of data set [1] is Mitogen-Activated Protein Kinase (MAPK or ERK). Description: MAPK (ERK phosphorylation) activity screen of BRaf inhibitors of Formula (I) vs. reference C-1. Type of data set: cell-based. As to conditions: MAPK activity of compound relative to reference compound C-1. From the text:
The BRaf inhibitors of this disclosure were screened for phosphorylation of ERK (MAPK).
(§1) The chemical structures, synthetic schemes and the synthetic procedures for each of the compounds of Formula (I) of this disclosure, as well as their MAPK (ERK) and the phototoxicity studies of LUT-014 were detailed in Shelach N., U.S. Patent Application Publication No. U.S.2019389862, which is incorporated herein in its entirety.

Data set [2] in a line: Phototoxicity: Photo-Irritation Factor (PIF) or Mean Photo Effect (MPE). The class given is cell-based. As to the method: The level of phototoxicity was determined by measuring a Photo-Irritation Factor (PIF) or a Mean Photo Effect (MPE) of one of the compounds of Formula (I), namely LUT-014 (R=3-(trifluoromethoxy)phenyl).
as §1

Another data set concerns wound. The following applies: given alone; cited from earlier work.

Consider `Cc1ccc2c(Nc3ccc(Cl)c(C(F)(F)F)c3)nccc2c1Nc1ncccc1-c1ncnc2nc[nH]c12` [LUT-017], for which the “LUT/C1 MAPK Ratios” value in data set [1] is reported as 3.5.
The same measure, in the same setting: to `Cc1ccc2c(Nc3cc(C(C)(C)C)nn3C)nccc2c1Nc1ncccc1-c1ncnc2nc[nH]c12` [LUT-013] belongs 3.4.
Take `Cc1ccc2c(Nc3cccc(OC(F)(F)F)c3)nccc2c1Nc1ncccc1-c1ncnc2[nH]cnc12` [LUT-014]: the “LUT/C1 MAPK Ratios” value in data set [1] came out at 2.9. Besides, in data set [2], the “Photo-Irritation Factor (PIF)” value was “less than 2” and the phototoxicity entry is “low phototoxicity”.
With `Cc1ccc2c(Nc3cccc(S(N)(=O)=O)c3)nccc2c1Nc1ncccc1-c1ncnc2[nH]cnc12` [LUT-020], the “LUT/C1 MAPK Ratios” value in data set [1] is on record as 1.0.
Still for that read-out and setting: to `Cc1ccc2c(Nc3ccc(F)c(Cl)c3)nccc2c1Nc1ncccc1-c1ncnc2[nH]cnc12` [LUT-015] belongs 2.1; to `C#Cc1cccc(Nc2nccc3c(Nc4ncccc4-c4ncnc5nc[nH]c45)c(C)ccc23)c1` [LUT-012], 0.7.
On to `Cc1ccc2c(Nc3ccc(I)cc3F)nccc2c1Nc1ncccc1-c1ncnc2nc[nH]c12` [LUT-016], for which, in data set [1], the “LUT/C1 MAPK Ratios” value amounted to 2.0.

B1: Becaplermin (protein, UniProt P01127 82-190, looked up)
Platelet-derived growth …: SLGSLTIAEPAMIAECKTRTEVFEISRRLIDRTNANFLVWPPCVEVQRCSGCCNNRNVQCRPTQVQLRPVQVRKIEIVRKKPIFKKATVTLEDHLACKCETVAAARPVT
notes: recombinant human platelet-derived growth factor, FDA-approved for promoting healing of diabetic foot ulcers
For the molecule B1, the “effect in promoting wound healing” value with wound was “only a modest beneficial effect”.

Values taken from patent publication US20240122933A1, “USE OF ISOQUINOLINE-1,5-DIAMINES FOR WOUND HEALING” (Lutris Pharma Ltd., priority 2021, published 2024).
